Measured values taken from patent publication US4616014A, “Triazine derivatives, and pharmaceutical compositions comprising the same” (Fujisawa Pharmaceutical Co., Ltd., priority 1981, dated 1986).
Where a name gives a salt, the structure may show the parent alone. Read-outs that look alike come from different tables or passages of the source. Each block holds one molecule with its values, some of them ahead of it.

Tests used:
[1] = system: platelet aggregation induced by collagen; assay: Inhibition of collagen-induced platelet aggregation in platelet rich plasma (Test Method B); format: cell-based, rabbit; settings: collagen (2.5 μg/ml), 37° C., 2 min, read-out: ID50, Collagen
Method: (§1) Platelet rich plasma (PRP) which contains 6.5-7.5×10^8 platelet/ml was prepared from rabbit blood. To the 200 μl of PRP, 5 μl of calcium chloride (1 mM) and 50 μl of pH 7.4 Tris-acetate solution (5 mM) containing 120 mM NaCl and test compound were added successively, and then stirred for 2 min. at 37° C. To the solution 5 μl of adenosine diphosphate (ADP) (2.5 μM) or collagen (2.5 μg/ml) was added as an aggregation inducer. Aggregation was measured by using an aggregometer (NKK HEMA TRACER 1).

[2] = system: platelet aggregation induced by adenosine diphosphate (ADP); assay: Inhibition of ADP-induced platelet aggregation in platelet rich plasma (Test Method B); format: cell-based, rabbit; settings: ADP (2.5 μM), 37° C., 2 min, read-out: ID50, ADP
Method: as §1

mean blood pressure = assay: Antihypertensive test in DOCA/saline hypertensive rats (Test Method A); format: in vivo, male Wister rats; settings: Rattus norvegicus, DOCA hypertensive rats, read-out: Effect Max (mean ratio of maximum decrease of blood pressure); for inhibition in vivo at 1 mg/kg: d: orally; for inhibition in vivo at 0.1 mg/kg: c: orally
Method: Five-week old male Wister rats were uninephrectomized under anesthesia. Deoxycorticosterone acetate (DOCA) (30 mg/kg), suspended in peanut oil, was injected subcutaneously twice a week and 1% saline was substituted for the drinking water. Animals with mean blood pressure 150-200 mmHg were used for experiment between 5 and 7 weeks after surgery. The test compounds were administered intraperitonealy or orally. Blood pressure was measured at the femoral artery by means of a pressure transducer and recorded as electrically integrated values of mean arterial pressure.

[3] = rabbit PRP, pH 7.4, listed as Ex. 76, 2 min
[4] = rabbit PRP, pH 7.4, listed as Ex. 75, 2 min
[5] = Oryctolagus cuniculus, Platelet, pH 7.4, rabbit PRP

IC50 [1, 3]: 360 nM | IC50 [2, 3]: 1200 nM
Structure (SMILES): CC1NC(=O)NN=C1c1ccc2c(c1)CCC(=O)N2C (single isomer, unassigned; (+)) [Example 76, (+)-5-Methyl-6-(1-methyl-2-oxo-1,2,3,4-tetrahydroquinolin-6-yl)-4,5-dihydro-1,2,4-triazin-3(2H)-one]
inhibition in vivo at 1 mg/kg (mean blood pressure; po): 56%

IC50 [1, 4]: 34 nM | IC50 [2, 4]: 98 nM
Structure (SMILES): CC1NC(=O)NN=C1c1ccc2c(c1)CCC(=O)N2C (single isomer, unassigned; (-)) [Example 75, (-)-5-methyl-6-(1-methyl-2-oxo-1,2,3,4-tetrahydroquinolin-6-yl)-4,5-dihydro-1,2,4-triazin-3(2H)-one]
inhibition in vivo at 0.1 mg/kg (mean blood pressure; po): 55%

Structure (SMILES): CC1N=C(N2CCN(C(=O)c3ccco3)CC2)NN=C1c1ccccc1 (stereo not drawn) [4-(2), 3-[4-(2-Furoyl)-1-piperazinyl]-5-methyl-6-phenyl-2,5-dihydro-1,2,4-triazine]
inhibition in vivo at 10 mg/kg (mean blood pressure; ip, a: intraperitonealy): 48.9%

Structure (SMILES): CC1N=C(NCCO)NN=C1c1ccccc1 (stereo not drawn) [6-(2), 3-(2-Hydroxyethylamino)-5-methyl-6-phenyl-2,5-dihydro-1,2,4-triazine]
inhibition in vivo at 10 mg/kg (mean blood pressure; ip, a: intraperitonealy): 43.1%

Structure (SMILES): CC1N=C(N2CCOCC2)NN=C1c1ccccc1 (stereo not drawn) [8-(2), 5-methyl-3-morpholino-6-phenyl-2,5-dihydro-1,2,4-triazine hydrochloride]
inhibition in vivo at 10 mg/kg (mean blood pressure; ip, a: intraperitonealy): 48.9%

Structure (SMILES): CC1N=C(N2CCCCC2)NN=C1c1ccccc1 (stereo not drawn) [10-(2), 5-Methyl-6-phenyl-3-piperidino-2,5-dihydro-1,2,4-triazine]
inhibition in vivo at 10 mg/kg (mean blood pressure; ip, a: intraperitonealy): 46.5% | inhibition in vivo at 10 mg/kg (mean blood pressure; po, b: orally): 50%

Structure (SMILES): CC1NC(=O)NN=C1c1ccccc1 (stereo not drawn) [36-(3), 5-methyl-6-phenyl-4,5-dihydro-1,2,4-triazin-3(2H)-one]
inhibition in vivo at 10 mg/kg (mean blood pressure; ip, a: intraperitonealy): 45.2%

Structure (SMILES): CC1NC(=O)NN=C1c1ccc(Cl)cc1 (stereo not drawn) [39-(2), 6-(4-Chlorophenyl)-5-methyl-4,5-dihydro-1,2,4-triazin-3(2H)-one]
inhibition in vivo at 10 mg/kg (mean blood pressure; ip, a: intraperitonealy): 57.1% | inhibition in vivo at 10 mg/kg (mean blood pressure; po, b: orally): 38.6%

IC50 [1, 5]: 18 nM | IC50 [2, 5]: 54 nM
Structure (SMILES): CC1NC(=O)NN=C1c1ccc2c(c1)CCC(=O)N2 (stereo not drawn) [67-(3), 5-Methyl-6-(2-oxo-1,2,3,4-tetrahydroquinolin-6-yl)-4,5-dihydro-1,2,4-triazin-3(2H)-one]
inhibition in vivo at 0.1 mg/kg (mean blood pressure; po): 43%

IC50 [1, 5]: 42 nM | IC50 [2, 5]: 140 nM
Structure (SMILES): CCCCN1C(=O)CCc2cc(C3=NNC(=O)NC3C)ccc21 (stereo not drawn) [68-(3), 6-(1-Butyl-2-oxo-1,2,3,4-tetrahydroquinolin-6-yl)-5-methyl-4,5-dihydro-1,2,4-triazin-3(2H)-one]
inhibition in vivo at 1 mg/kg (mean blood pressure; po): 62%

Structure (SMILES): CC1N=C(NN)NN=C1c1ccc(Cl)cc1 (stereo not drawn) [Example 25-(4), 6-(4-chlorophenyl)-3-hydrazino-5-methyl-2,5-dihydro-1,2,4-triazine hydrochloride]
inhibition in vivo at 10 mg/kg (mean blood pressure; ip, a: intraperitonealy): 51.7% | inhibition in vivo at 10 mg/kg (mean blood pressure; po, b: orally): 37.4%

Structure (SMILES): CC1NC(=O)NN=C1c1ccc(Br)cc1 (stereo not drawn) [Example 32-(3), 37-(2), 6-(4-bromophenyl)-5-methyl-4,5-dihydro-1,2,4-triazin-3(2H)-one]
inhibition in vivo at 10 mg/kg (mean blood pressure; ip, a: intraperitonealy): 61.8% | inhibition in vivo at 10 mg/kg (mean blood pressure; po, b: orally): 58.3%

IC50 [1, 5]: 110 nM | IC50 [2, 5]: 160 nM
Structure (SMILES): CC1NC(=O)NN=C1c1ccc2c(c1)CCC(=O)N2C (stereo not drawn) [Example 49-(3), 77-(2), 5-methyl-6-(1-methyl-2-oxo-1,2,3,4-tetrahydroquinolin-6-yl)-4,5-dihydro-1,2,4-triazin-3(2H)-one]
inhibition in vivo at 0.1 mg/kg (mean blood pressure; po): 43% | inhibition in vivo at 1 mg/kg (mean blood pressure; po): 70%

IC50 [1, 5]: 17000 nM | IC50 [2, 5]: 9800 nM
Structure (SMILES): CC1NC(=O)N(C)N=C1c1ccc2c(c1)CCC(=O)N2C (stereo not drawn) [Example 71, 2,5-Dimethyl-6-(1-methyl-2-oxo-1,2,3,4-tetrahydroquinolin-6-yl)-4,5-dihydro-1,2,4-triazin-3(2H)-one]
